Source: publication PMC9027599, “Secondary Metabolites in Basil, Bio-Insecticide, Inhibition Effect, and In Silico Molecular Docking against Proteolytic Enzymes of the Red Palm Weevil (Rhynchophorus ferrugineus)” (Plants, 2022)
≈ marks a conversion by molar mass, not a printed value.

What was measured:
[1] = test system: trypsin-like serine proteinase; assay: Trypsin-like activity of midgut from larvae treated 24 h (in vivo); set-up: species or system Rhynchophorus ferrugineus; conditions: midgut of fourth instar larvae treated for 24 h
Protocol: (§1) The midguts were homogenized in the assay buffer (100 mM Tris-HCl, pH 8.1) and centrifuged for 30 min at 8000 rpm (Sigma 3K 30, rotors No. 12158). […] […] (100 mg/mL in DMF), BAρNA (100 mg/mL in DMSO), and […] (100 mg/mL in DMF) stock substrates were diluted in the assay buffer to 1 mg/mL, and substrate volume was 50 μL. […] The activity was quantified using an ELISA plate reader at a wavelength of 405 nm. As an empty well, an assay combination containing a denaturation enzyme was utilized instead of an active enzyme. […] To learn more about the proteases found in homogenate preparations of R. ferrugineus fourth midgut larval instars, inhibitors from many different types of mechanisms were used. […] As a control, an assay combination devoid of inhibitors was utilized. The absorbance of the enzymes was determined using an ELISA plate quick reader at various wavelengths. The percentage activity of the control enzyme for each inhibitor was evaluated for each enzyme. […] Larvae were exposed for 24 h to leaf discs treated with extract and compounds.

[2] = target: trypsin-like serine proteinase; assay: Serine proteinase microplate assay, BApNA (in vitro); format: biochemical, Rhynchophorus ferrugineus; conditions: fourth instar larvae midgut homogenate
Protocol: as §1, with “The specific activities of serine proteinase were determined using a rapid quick microplate assay with substrates in reaction mixtures (150 μL) including a serine protease assay buffer, according to […] et al. and Olga et al. with modifications. The midguts” for “The midguts”

metalloprotease [3] = assay: Metalloproteinase activity, azocasein (in vitro); format: biochemical, Rhynchophorus ferrugineus; conditions: fourth instar larvae midgut homogenate
Protocol: (§2) A substrate azocasein assessed the metalloproteinases activity in the fourth midgut instar larval homogenate. Ten larvae were carefully removed, dissected, and rinsed repeatedly with NaCl solution (0.9% (w/v). […] After homogenization, the homogenates were centrifuged at 5000 rpm (for 30 min) using a Sigma centrifuge 3k30, and the supernatant was utilized to determine enzyme activity and protein content. The supernatant per experiment (10 µL) was incubated for 20 min at 37 °C, and the volume was adjusted to 60 µL using assay buffer pH 8 before adding azocasein (200 µL, 2% (w/v)). In all instances, 10 µL enzyme samples were incubated for 10 min (except EDTA with 20 min), and EDTA was used as a blocker of metalloproteinase activity before being added to the specific substrate. The reaction was interrupted with 300 µL of trichloroacetic acid (TCA cold, 10% (v/v) and continued at 37 °C for 180 min. The reaction mixture was then centrifuged at 5000 rpm for 20 min (Sigma centrifuge 3k30), sodium hydroxide (10 µL of 10 N) was incorporated into the supernatant, then absorbance was determined using an ELISA plate reader at 450 nm. As a blank, an assay mixture devoid of the enzyme was devoted, the specific activity was determined using the OD450 mg^−1 protein min^−1 value, and a blank solution sample devoid of enzyme solution was determined. To learn more about the proteases found in homogenate preparations of R. ferrugineus fourth midgut larval instars, inhibitors from many different types of mechanisms were used. […] As a control, an assay combination devoid of inhibitors was utilized. The absorbance of the enzymes was determined using an ELISA plate quick reader at various wavelengths. The percentage activity of the control enzyme for each inhibitor was evaluated for each enzyme. […] Larvae were exposed for 24 h to leaf discs treated with extract and compounds.

metalloprotease [4] = assay: Metalloprotease activity of midgut from larvae treated 24 h (in vivo); set-up: species or system Rhynchophorus ferrugineus; conditions: midgut of fourth instar larvae treated for 24 h
Protocol: as §2

R. ferrugineus adults = assay: whole plant or invertebrate; conditions: Rhynchophorus ferrugineus
Protocol: The R. ferrugineus adult and larvae were acquired from an insect breeding lab at King Faisal University’s Date Palm Research Center of Excellence and grown utilizing sugarcane stem long pieces. The extracts activity against larvae was determined by using topical application method with storing larvae at 4–5 °C for 5 min. Previous serial concentrations of extract (10 µL) were applied to the dorsum of each larvae using a hand-operated micro-applicator (Burkard Manufacturing Co., Ltd., Hertfordshire, UK with a 50-ll micro-syringe (MS-N50; Ito Corp., Shizuoka, Japan). Each larva was feeding on 10 cm stem pieces of long sugarcane, with 5 larvae/box with three replicates. After topical administration, larval mortality was determined after 24, 48, 72, and 96 h to determine the LD50. Adults were tested for antifeedant effect determined using ten-centimeter-long sections of sugarcane stem divided into equal longitudinal halves. Pieces of long sections of sugarcane stem with area ~32.2 cm^2 were dipped for ten seconds in the previous serial concentration of extract (10 mL) and, then, dried in room temperature air. […] Each package received a replacement pair (male and female). Each treatment was replicated ten times. After 24, 48, 72, and 96 h, feeding observations were assayed.
Finney states that the statistical analysis and probit analysis were conducted using the SPSS 25.0 program (Statistical Package for Social Sciences, Armonk, NY, USA). Chemical components were determined by PCA using SPSS 25.0 program and presented using XLSTAT 2018.1. PCA is a clustering technique that is used to determine the relationships between samples. […] We did a mortality against dosage regression and converted the resultant median dose to an LC50 value (µg/mL). The range of LC50 was calculated with a 95 percent confidence interval using least-squares. We conducted a one-way analysis of variance on the enzyme activity data (ANOVA). The Student–Newman–Keuls (SNK) test was applied with separate means, and differences at p ≤ 0.05 were considered significant.

elastase [5] = assay: Serine proteinase microplate assay, SAAPLpNA (in vitro); format: biochemical, Rhynchophorus ferrugineus; conditions: fourth instar larvae midgut homogenate
Protocol: as §1, with “The specific activities of serine proteinase were determined using a rapid quick microplate assay with substrates in reaction mixtures (150 μL) including a serine protease assay buffer, according to […] et al. and Olga et al. with modifications. The midguts” for “The midguts”

elastase [6] = assay: Elastase activity of midgut from larvae treated 24 h (in vivo); set-up: species or system Rhynchophorus ferrugineus; conditions: midgut of fourth instar larvae treated for 24 h
Protocol: as §1

Row | Molecule | IC50 against trypsin-like serine proteinase (in vivo) [1] [µg/mL] | IC50 against trypsin-like serine proteinase (in vitro) [2] [µg/mL] | IC50 against metalloprotease (in vitro) (metalloprotease [3]) [µg/mL] | IC50 against metalloprotease (in vivo) (metalloprotease [4]) [µg/mL] | LC50 (R. ferrugineus adults) [µg/mL] | IC50 against elastase (in vitro) (elastase [5]) [µg/mL] | IC50 against elastase (in vivo) (elastase [6]) [µg/mL]
1 | dicaffeoyl-tartaric acid [Chicoric acid] | 75.1 | 51.6 | 44.6 | 74.2 | – | – | –
2 | C[C@@H]1O[C@@H](OC[C@H]2O[C@@H](Oc3c(-c4ccc(O)c(O)c4)oc4cc(O)cc(O)c4c3=O)[C@H](O)[C@@H](O)[C@@H]2O)[C@H](O)[C@H](O)[C@H]1O [Quercetin-3-O-rutinoside] | 325.5 | 104.5 | 37.3 | 612.4 | 1210 (≈ 1.99 mM) | – | –
3 | O=C(/C=C/c1ccc(O)c(O)c1)O/C=C\c1ccc(O)c(O)c1 [Nepetoidin B] | 102.7 | 86.7 | 51.1 | 95.8 | 1320 (≈ 4.19 mM) | – | –
4 | O=C(/C=C/c1ccc(O)c(O)c1)O[C@H](Cc1ccc(O)c(O)c1)C(=O)O [Rosmarinic acid] | 174.6 | 91.3 | 48.4 | 86.7 | 1500 (≈ 4.15 mM) | 96.4 | 119.7
5 | O=C(O)C[C@H](C(=O)O)[C@@H](O)C(=O)O [Isocitric acid] | 314.8 | – | 127.8 | 169.2 | 1830 (≈ 9.5 mM) | – | –
6 | COc1ccc(-c2cc(=O)c3c(O)c(OC)c(OC)cc3o2)cc1 [Salvigenin, 5-Hydroxy-6,7,4′-trimethoxyflavone] | 241.2 | 59.2 | 49.1 | 113.7 | 1190 (≈ 3.62 mM) | 105.6 | 138.2
